Source: ChEMBL document CHEMBL1157865, “Synthesis and evaluation of SQ109 analogues as potential anti-tuberculosis candidates” (2010)
≈ marks a conversion by molar mass, not a printed value.

System: Mycobacterium tuberculosis
Test: Antimycobacterial activity against Mycobacterium tuberculosis H37Rv ATCC 25618 by BACTEC 460 radiometric method
Assay type: functional

SMILES | MIC [µM]
CC(C)=CCC/C(C)=C/CC/C(C)=C/CNCCNC1C2CC3CC(C2)CC1C3 (stereo unspecified) | 0.25 (≈ 0.0997 µg/mL)
CC(C)CCCC(C)CCNCCNC1C2CC3CC(C2)CC1C3 (stereo unspecified) | 1 (≈ 0.335 µg/mL)
CC(C)CCCC(C)CCCC(C)CCNCCNC1C2CC3CC(C2)CC1C3 (stereo unspecified) | 0.5 (≈ 0.202 µg/mL)
CC(C)=CCC/C(C)=C\CNCCNC12CC3CC(CC(C3)C1)C2 | 1 (≈ 0.331 µg/mL)
CC(C)CCCC(C)CCNCCNC12CC3CC(CC(C3)C1)C2 (stereo unspecified) | 0.5 (≈ 0.167 µg/mL)
CC(C)=CCC/C(C)=C/CNCCNC1C2CC3CC(C2)CC1C3 (stereo unspecified) [SQ109] | 0.5 (≈ 0.165 µg/mL)
